Test results: US9006487B2, “Amine-containing lipids and uses thereof” (Massachusetts Institute of Technology, priority 2005, dated 2015)

tested on: cos-7 cells; test: DNA transfection: luciferase expression relative to Lipofectamine 2000; assay type: cell-based; conditions: lipid/DNA 2.5 w/w; 300 ng Luciferase DNA per well; luciferase assay after 48 hours
Method in brief: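 cos-7 cells were transfected with 300 ng/well luciferase DNA complexed with lipid at ratios from 2.5 to 25 w/w. Bright-Glo luminescence was read after 48 hours and converted to ng luciferase by standard curve. Data are percent of the Lipofectamine 2000 control (2.5 w/w).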

With CCCCCCCCCCOC(=O)CC[N+](C)(CCC(=O)OCCCCCCCCCC)CCC1OCCO1.[I-] [QB6] as the compound, how does the “Luciferase expression as a percentage of that achieved using Lipofectamine 2000” value (shortened to “Luciferase expression as a percentage”) read?
The value was 0.0%.

How did the “Luciferase expression as a percentage” value turn out when CCCCCCCCCCOC(=O)CC[N+](C)(CCC(=O)OCCCCCCCCCC)CC1COC(C)(C)O1.[I-] (centres unmarked) [QB7] was run?
The value was 0.0%.

How did the “Luciferase expression as a percentage” value turn out when CCCCCCCCCCCCCCOC(=O)CC[N+](C)(CCCOC)CCC(=O)OCCCCCCCCCCCCCC.[I-] [QF1] was run?
The value was 0.4%.

With CCCCCCCCCCCCCCOC(=O)CC[N+](C)(CCC(=O)OCCCCCCCCCCCCCC)CCC1OCCO1.[I-] [QF6] as the compound, how does the “Luciferase expression as a percentage” value read?
Its value is 0.0%.

same assay, conditions: lipid/DNA 2.5 w/w; 300 ng of DNA per well

With CCCCCCCCCCCCNC(=O)CCN(CCC(=O)NCCCCCCCCCCCC)C(C)(CO)CO [ND26] as the compound, how does the “luciferase expression (second part of table, values relative to LIPO2000)” value read?
Its value is 13.4.

same assay, conditions: lipid/DNA 5 w/w; 300 ng Luciferase DNA per well; luciferase assay after 48 hours

How did the “Luciferase expression as a percentage” value turn out when CCCCCCCCCCOC(=O)CC[N+](C)(CCC(=O)OCCCCCCCCCC)CCC1OCCO1.[I-] [QB6] was run?
Its value is 0.0%.

CCCCCCCCCCOC(=O)CC[N+](C)(CCC(=O)OCCCCCCCCCC)CC1COC(C)(C)O1.[I-] (centres unmarked) [QB7] was tested. Which “Luciferase expression as a percentage” value did it give?
Its value is 0.0%.

For CCCCCCCCCCCCCCOC(=O)CC[N+](C)(CCCOC)CCC(=O)OCCCCCCCCCCCCCC.[I-] [QF1], which “Luciferase expression as a percentage” value is on record?
The value was 0.3%.

With CCCCCCCCCCCCCCOC(=O)CC[N+](C)(CCC(=O)OCCCCCCCCCCCCCC)CCC1OCCO1.[I-] [QF6] as the compound, how does the “Luciferase expression as a percentage” value read?
Its value is 0.0%.

same assay, conditions: lipid/DNA 5 w/w; 300 ng of DNA per well

With CCCCCCCCCCCCNC(=O)CCN(CCC(=O)NCCCCCCCCCCCC)C(C)(CO)CO [ND26] as the compound, how does the “luciferase expression (second part of table, values relative to LIPO2000)” value read?
Its value is 2.3.

same assay, conditions: lipid/DNA 10 w/w; 300 ng Luciferase DNA per well; luciferase assay after 48 hours

How did the “Luciferase expression as a percentage” value turn out when CCCCCCCCCCCCCCCCCCOC(=O)CCN(CCCCO)CCC(=O)OCCCCCCCCCCCCCCCCCC [LH28] was run?
The value was 0.2%.

CCCCCCCCCCOC(=O)CC[N+](C)(CCC(=O)OCCCCCCCCCC)CCC1OCCO1.[I-] [QB6] was tested. Which “Luciferase expression as a percentage” value did it give?
Its value is 0.0%.

CCCCCCCCCCOC(=O)CC[N+](C)(CCC(=O)OCCCCCCCCCC)CC1COC(C)(C)O1.[I-] (centres unmarked) [QB7] was tested. Which “Luciferase expression as a percentage” value did it give?
Its value is 0.0%.

Which “Luciferase expression as a percentage” value does the source give for CCCCCCCCCCCCOC(=O)CC[N+](C)(CCCCO)CCC(=O)OCCCCCCCCCCCC.[I-] [QD28] here?
Its value is 0.1%.

CCCCCCCCCCCCOC(=O)CC[N+](C)(CCC(=O)OCCCCCCCCCCCC)CC[N+](C)(CCO)CCO.[I-].[I-] [QD86] was tested. Which “Luciferase expression as a percentage” value did it give?
The value was 2.0%.

Which “Luciferase expression as a percentage” value does the source give for CCCCCCCCCCCCOC(=O)CC[N+](C)(CCC[N+](C)(CCO)CCO)CCC(=O)OCCCCCCCCCCCC.[I-].[I-] [QD87] here?
Its value is 0.5%.

With CCCCCCCCCCCCCCOC(=O)CC[N+](C)(CCCOC)CCC(=O)OCCCCCCCCCCCCCC.[I-] [QF1] as the compound, how does the “Luciferase expression as a percentage” value read?
The value was 0.4%.

How did the “Luciferase expression as a percentage” value turn out when CCCCCCCCCCCCCCOC(=O)CC[N+](C)(CCC(=O)OCCCCCCCCCCCCCC)CCC1OCCO1.[I-] [QF6] was run?
Its value is 0.0%.

same assay, conditions: lipid/DNA 10 w/w; 300 ng of DNA per well

How did the “luciferase expression (second part of table, values relative to LIPO2000)” value turn out when CCCCCCCCCCCCNC(=O)CCN(CCC(=O)NCCCCCCCCCCCC)C(C)(CO)CO [ND26] was run?
Its value is 0.1.

same assay, conditions: lipid/DNA 15 w/w; 300 ng Luciferase DNA per well; luciferase assay after 48 hours

CCCCCCCCCCCCCCCCCCOC(=O)CCN(CCCCO)CCC(=O)OCCCCCCCCCCCCCCCCCC [LH28] was tested. Which “Luciferase expression as a percentage” value did it give?
Its value is 0.2%.

How did the “Luciferase expression as a percentage” value turn out when CCCCCCCCCCOC(=O)CC[N+](C)(CCC(=O)OCCCCCCCCCC)CCC1OCCO1.[I-] [QB6] was run?
The value was 0.0%.

For CCCCCCCCCCOC(=O)CC[N+](C)(CCC(=O)OCCCCCCCCCC)CC1COC(C)(C)O1.[I-] (centres unmarked) [QB7], which “Luciferase expression as a percentage” value is on record?
Its value is 0.0%.

For CCCCCCCCCCCCOC(=O)CC[N+](C)(CCCCO)CCC(=O)OCCCCCCCCCCCC.[I-] [QD28], which “Luciferase expression as a percentage” value is on record?
The value was 0.1%.

With CCCCCCCCCCCCOC(=O)CC[N+](C)(CCC(=O)OCCCCCCCCCCCC)CC[N+](C)(CCO)CCO.[I-].[I-] [QD86] as the compound, how does the “Luciferase expression as a percentage” value read?
Its value is 2.0%.

Which “Luciferase expression as a percentage” value does the source give for CCCCCCCCCCCCOC(=O)CC[N+](C)(CCC[N+](C)(CCO)CCO)CCC(=O)OCCCCCCCCCCCC.[I-].[I-] [QD87] here?
The value was 0.7%.

Which “Luciferase expression as a percentage” value does the source give for CCCCCCCCCCCCCCOC(=O)CC[N+](C)(CCCOC)CCC(=O)OCCCCCCCCCCCCCC.[I-] [QF1] here?
Its value is 0.3%.

Which “Luciferase expression as a percentage” value does the source give for CCCCCCCCCCCCCCOC(=O)CC[N+](C)(CCC(=O)OCCCCCCCCCCCCCC)CCC1OCCO1.[I-] [QF6] here?
The value was 0.0%.

same assay, conditions: lipid/DNA 15 w/w; 300 ng of DNA per well

How did the “luciferase expression (second part of table, values relative to LIPO2000)” value turn out when CCCCCCCCCCCCNC(=O)CCN(CCC(=O)NCCCCCCCCCCCC)C(C)(CO)CO [ND26] was run?
The value was 0.0.

same assay, conditions: lipid/DNA 20 w/w; 300 ng Luciferase DNA per well; luciferase assay after 48 hours

Which “Luciferase expression as a percentage” value does the source give for CCCCCCCCCCOC(=O)CC[N+](C)(CCC(=O)OCCCCCCCCCC)CCC1OCCO1.[I-] [QB6] here?
Its value is 0.0%.

CCCCCCCCCCOC(=O)CC[N+](C)(CCC(=O)OCCCCCCCCCC)CC1COC(C)(C)O1.[I-] (centres unmarked) [QB7] was tested. Which “Luciferase expression as a percentage” value did it give?
The value was 0.0%.

CCCCCCCCCCCCCCOC(=O)CC[N+](C)(CCCOC)CCC(=O)OCCCCCCCCCCCCCC.[I-] [QF1] was tested. Which “Luciferase expression as a percentage” value did it give?
The value was 0.3%.

How did the “Luciferase expression as a percentage” value turn out when CCCCCCCCCCCCCCOC(=O)CC[N+](C)(CCC(=O)OCCCCCCCCCCCCCC)CCC1OCCO1.[I-] [QF6] was run?
The value was 0.0%.

same assay, conditions: lipid/DNA 20 w/w; 300 ng of DNA per well

How did the “luciferase expression (second part of table, values relative to LIPO2000)” value turn out when CCCCCCCCCCCCNC(=O)CCN(CCC(=O)NCCCCCCCCCCCC)C(C)(CO)CO [ND26] was run?
The value was 0.0.

same assay, conditions: lipid/DNA 25 w/w; 300 ng Luciferase DNA per well; luciferase assay after 48 hours

CCCCCCCCCCOC(=O)CC[N+](C)(CCC(=O)OCCCCCCCCCC)CCC1OCCO1.[I-] [QB6] was tested. Which “Luciferase expression as a percentage” value did it give?
Its value is 0.0%.

For CCCCCCCCCCOC(=O)CC[N+](C)(CCC(=O)OCCCCCCCCCC)CC1COC(C)(C)O1.[I-] (centres unmarked) [QB7], which “Luciferase expression as a percentage” value is on record?
The value was 0.0%.

CCCCCCCCCCCCCCOC(=O)CC[N+](C)(CCCOC)CCC(=O)OCCCCCCCCCCCCCC.[I-] [QF1] was tested. Which “Luciferase expression as a percentage” value did it give?
The value was 0.3%.

For CCCCCCCCCCCCCCOC(=O)CC[N+](C)(CCC(=O)OCCCCCCCCCCCCCC)CCC1OCCO1.[I-] [QF6], which “Luciferase expression as a percentage” value is on record?
The value was 0.0%.

same assay, conditions: lipid/DNA 25 w/w; 300 ng of DNA per well

With CCCCCCCCCCCCNC(=O)CCN(CCC(=O)NCCCCCCCCCCCC)C(C)(CO)CO [ND26] as the compound, how does the “luciferase expression (second part of table, values relative to LIPO2000)” value read?
Its value is 0.0.
